Reference: patent publication US8318807B2 (Laurus Labs Private Limited, priority 2010, dated 2012)

Assays:
[1] = Relative humidity stability over saturated salt solutions at ambient temperature, analysed by XRPD; format: physicochemical; details: for Dissociation by XRPD: 75, 94, or 98% RH after four weeks
Procedure: Relative humidity (RH) conditions were created at ambient temperatures using saturated salt solutions: NaCl ˜75%, KNO3 ˜94%, and K2SO4 ˜98%. Vials of each sample containing approximately 10 mg, were subjected to physical stability at ˜75% RH, ˜94% RH, and ˜98% RH for one day, three days, one week, and four weeks within a closed chamber. […] Upon completion of the duration allowed, the samples were immediately analyzed by XRPD.

[2] = Physical stability upon slurrying in water; format: physicochemical; details: for Behaviour upon slurrying in water: three days
Text: […]. […] […]. […]

[3] = test system: cancer cell lines; details: cancer cell lines in vitro; cited from earlier work
[4] = Procedure: Solubility and concentration measurements were performed using ultraviolet (UV) spectroscopy on a Spectramax Microplate Reader.
Appropriate dilutions with water were made as necessary to maintain absorbance readings within the standard curve. All experiments were repeated three times to evaluate the standard deviation, while particle size was not controlled for any of the experiments.

[5] = Powder dissolution of cocrystal 4 (attempted for cocrystal 3): slurry in water at ambient, UV at 315 nm; format: physicochemical
[6] = Physical stability at elevated temperature and/or relative humidity, analysed by XRPD; format: physicochemical
Procedure: Physical stability was evaluated at approximately 40° C., 60° C., 25° C./75% RH, 25° C./98% RH, and 40° C./75% RH and XRPD was used to detect dissociation or form conversion. Vials of each cocrystal were subjected to each condition for durations of two weeks, one month, and two months. Upon completion of the duration allowed, the samples were immediately analyzed by XRPD.

[7] = Attempted intrinsic dissolution in 900 mL water at ambient conditions; format: physicochemical; details: after 30 minutes
Procedure: Intrinsic dissolution in 900 mL water at ambient conditions was also attempted. […] Therefore, a concentration vs. time and intrinsic dissolution rate value were unobtainable at these conditions.

| Compound | Results (XRPD) ([1]; 75% RH, 1 week) | Results (XRPD) ([1]; 75% RH, 4 weeks) | Results (XRPD) ([1]; 75% RH, 1 day) | Results (XRPD) ([1]; 75% RH, 3 days) | Results (XRPD) ([1]; 94% RH, 1 week (7 days)) | Results (XRPD) ([1]; 94% RH, 4 weeks) | Results (XRPD) ([1]; 94% RH, 1 day) | Results (XRPD) ([1]; 94% RH, 3 days) | Results (XRPD) ([1]; 98% RH, 1 week) | Results (XRPD) ([1]; 98% RH, 4 weeks) | Results (XRPD) ([1]; 98% RH, 1 day) | Results (XRPD) ([1]; 98% RH, 3 days) | Behaviour upon slurrying in water [2] | Dissociation by XRPD [1] | other results |
| --- | --- | --- | --- | --- | --- | --- | --- | --- | --- | --- | --- | --- | --- | --- | --- |
| Cn1c(=O)c2c(ncn2C)n(C)c1=O [caffeine] | caffeine anhydrous | caffeine anhydrous | caffeine anhydrous | caffeine anhydrous | caffeine hydrate | caffeine hydrate | caffeine anhydrous | caffeine anhydrous/caffeine hydrate | caffeine hydrate | caffeine hydrate | caffeine hydrate | caffeine hydrate |  |  | Conversion to hydrate ([1]; 75% RH, up to four weeks): does not display signs of conversion; Time of partial conversion to hydrate/dihydrate ([1]; 94% RH): between one and three days; Time of (full) conversion to hydrate/dihydrate ([1]; 98% RH): less than one day |
| COc1cc(/C=C/c2ccc(O)cc2)cc(OC)c1.Cn1c(=O)c2c(ncn2C)n(C)c1=O [cocrystal 1 (Form I), pterostilbene:caffeine] | cocrystal 1 (Form I), no caffeine hydrate | cocrystal 1 (Form I), no caffeine hydrate | cocrystal 1 (Form I), no caffeine hydrate | cocrystal 1 (Form I), no caffeine hydrate | cocrystal 1 (Form I), no caffeine hydrate | cocrystal 1 (Form I), no caffeine hydrate | cocrystal 1 (Form I), no caffeine hydrate | cocrystal 1 (Form I), no caffeine hydrate |  |  |  |  | precipitation of pterostilbene |  | Results (XRPD) ([1]; 75% RH, 1 week, then additional stress at 98% RH, 1 week): cocrystal 1 (Form I), no caffeine hydrate; Results (XRPD) ([1]; 75% RH, 1 day, then additional stress at 98% RH, 1 day): cocrystal 1 (Form I), no caffeine hydrate; Results (XRPD) ([1]; 94% RH, 7 days, then additional stress at 98% RH, 4 weeks): cocrystal 1 (Form I), no caffeine hydrate; Results (XRPD) ([2]; Table 19, slurry, 2 days): cocrystal 1 (Form I), no caffeine hydrate |
| COc1cc(/C=C/c2ccc(O)cc2)cc(OC)c1.Cn1c(=O)c2c(ncn2C)n(C)c1=O [cocrystal 1, pterostilbene:caffeine] |  |  |  |  |  |  |  |  |  |  |  |  |  | no dissociation |  |
| COc1cc(/C=C/c2ccc(O)cc2)cc(OC)c1 [pterostilbene, trans-3,5-dimethoxy-4′-hydroxystilbene] |  | pterostilbene (Form I) |  |  |  | pterostilbene (Form I) |  |  |  | pterostilbene (Form I) |  |  |  |  | Cytotoxic activity [3]: cytotoxic activity |
| pterostilbene:carbamazepine [cocrystal 2] | cocrystal 2, no carbamazepine dihydrate | cocrystal 2, no carbamazepine dihydrate | cocrystal 2, no carbamazepine dihydrate | cocrystal 2, no carbamazepine dihydrate | cocrystal 2, no carbamazepine dihydrate | cocrystal 2, no carbamazepine dihydrate | cocrystal 2, no carbamazepine dihydrate | cocrystal 2, no carbamazepine dihydrate | cocrystal 2, no carbamazepine dihydrate | cocrystal 2, no carbamazepine dihydrate | cocrystal 2, no carbamazepine dihydrate | cocrystal 2, no carbamazepine dihydrate | stable |  | Solubility (±standard deviation) [4]: 8.5 ± 0.7 µg/mL |
| pterostilbene:glutaric acid [cocrystal 3] |  |  |  |  |  |  |  |  |  |  |  |  |  | no dissociation | Solubility relative to pterostilbene ([5]; concluded from crystalline pterostilbene being the only product after slurrying in water): greater than the solubility of pterostilbene; XRPD result after slurrying in water ([5]; water at ambient, after 5 minutes): crystalline pterostilbene; Results (by XRPD) ([6]; 25° C./75% RH, 2 weeks): cocrystal 3; Results (by XRPD) ([6]; 25° C./75% RH, 4 weeks): cocrystal 3; Results (by XRPD) ([6]; 25° C./75% RH, 8 weeks): cocrystal 3; Results (by XRPD) ([6]; 25° C./98% RH, 2 weeks): cocrystal 3; Results (by XRPD) ([6]; 25° C./98% RH, 4 weeks): cocrystal 3; Results (by XRPD) ([6]; 25° C./98% RH, 8 weeks): cocrystal 3; Results (by XRPD) ([6]; 40° C., 2 weeks): cocrystal 3; Results (by XRPD) ([6]; 40° C., 4 weeks): cocrystal 3; Results (by XRPD) ([6]; 40° C., 8 weeks): cocrystal 3; Results (by XRPD) ([6]; 40° C./75% RH, 2 weeks): cocrystal 3; Results (by XRPD) ([6]; 40° C./75% RH, 4 weeks): cocrystal 3; Results (by XRPD) ([6]; 40° C./75% RH, 8 weeks): cocrystal 3; Results (by XRPD) ([6]; 60° C., 2 weeks): cocrystal 3; Results (by XRPD) ([6]; 60° C., 4 weeks): cocrystal 3; Results (by XRPD) ([6]; 60° C., 8 weeks): cocrystal 3; XRPD result in intrinsic dissolution [7]: crystalline pterostilbene |
